According to paper PMC5962708, “Structure-Based Design, Synthesis, Biological Evaluation, and Molecular Docking of Novel PDE10 Inhibitors With Antioxidant Activities” (Frontiers in Chemistry, 2018):
Several values for one entry are separate records, joined by “and”; a condition that tells them apart may be missing. Identical values can stand only once.

Tests used:
[1] = molecular target: T1, PDE10A catalytic domain (residues 446-789) (Homo sapiens, UniProt Q9Y233); experiment: PDE10A enzymatic assay (3H-cGMP hydrolysis, scintillation counting); assay type: biochemical; details: for inhibition at 1 µM: compound concentration 1 μM, read-out: PDE10 inhibitory assay Inhibition ratio (1 μM) (%); for IC50: mean of three independent determinations, 3H-cGMP substrate, read-out: PDE10 inhibitory assay IC50
T1 construct: coding the catalytic domain (residues 446-789); inferred from the pET15b vector and the Ni-NTA purification) (N); made in house; host or cells: E. coli BL21 (Codonplus, Stratagene)
T1 sequence (Q9Y233 712-1055): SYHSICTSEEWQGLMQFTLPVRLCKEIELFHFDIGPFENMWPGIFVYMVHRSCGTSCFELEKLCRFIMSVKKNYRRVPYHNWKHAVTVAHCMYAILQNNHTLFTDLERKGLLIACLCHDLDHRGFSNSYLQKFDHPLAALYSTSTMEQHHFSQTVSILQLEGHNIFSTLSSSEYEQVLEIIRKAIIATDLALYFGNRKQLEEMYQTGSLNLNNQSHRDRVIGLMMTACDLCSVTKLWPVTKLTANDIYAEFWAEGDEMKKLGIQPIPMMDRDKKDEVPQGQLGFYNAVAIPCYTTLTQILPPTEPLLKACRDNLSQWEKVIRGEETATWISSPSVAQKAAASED
Procedure: The recombinant pET15b-PDE10A plasmid coding the catalytic domain (residues 446-789) was subcloned and purified according to the following protocols previously reported (Li et al., [2015]). Then it was transferred into E. coli strain BL21 (Codonplus, Stratagene). The E. coli cells carrying the recombinant plasmid were cultured in an 2XYT medium (containing 100 μg/mL ampicillin and 30 μg/mL chloramphenicol) at 37°C until OD600 = 0.6-0.8. And then, 1 mM isopropyl-β-D-thiogalactopyranoside was added in to induce the PDE10A protein expression at 20°C for 24 h. The nickel nitriloacetic acid (Ni-NTA) column (Qiagen) was used for purifying PDE10A proteins. The concentration of the PDE10 fractions was estimated based on the absorbance at 280 nm (calculated by the ProtParam software).
The enzymatic activities of the catalytic domains of PDE10A were performed using ^3H-cGMP solution in the assay buffer of 50 mM Tris pH = 7.5, 4 mM MgCl2, 1 mM DTT, and ^3H-cGMP giving 20,000–30,000 cpm after the reaction terminated per assay. To a solution (DMSO) of test compounds in different concentration, the PDE10A enzyme in the assay buffer was added to perform the enzymatic reaction and then incubated at room temperature for 15 min. The assay was then terminated by addition of 0.2 M ZnSO4, Subsequently, 0.2 N Ba(OH)2 was added to precipitate the reaction product ^3H-GMP, whereas unreacted ^3H-cGMP remained in the supernatant. The radioactivity in the supernatant was measured in 2.5 mL Ultima Gold liquid scintillation cocktails (PerkinElmer) by a liquid scintillation counter (PerkinElmer 2910). The IC50 values of test compounds at PDE10A enzymes were measured by repeating of three independent experiments using the nonlinear regression method.

[2] = Antioxidant assay: oxygen radical absorbance capacity fluorescein (ORAC-FL) method; details: AAPH 12 mM, fluorescein 150 nM, pH 7.4, 37°C, samples 1–10 μM
Procedure: The modified oxygen radical absorbance capacity fluorescein (ORAC-FL) method was performed to determine the antioxidant activity (Ou et al., [2001]; Dávalos et al., [2004]). The reaction was diluted with 75 mM phosphate buffer (pH = 7.4), and the volume of the final reaction mixture was 200 μL in well. Test compound (20 μL) and fluorescein (120 μL, 150 nM final concentration) were placed in the well of a black 96 well optical bottom plates. After the mixture was incubated at 37°C for 15 min, AAPH solution (60 μL, 12 mM final concentration) was added rapidly. The plate was placed in a Spectrafluor Plus plate reader (Tecan, Crailsheim, Germany) and the fluorescence was recorded every minute for 4 h with an excitation wavelength at 485 nm and emission wavelength at 535 nm. Trolox was used as standard (1–8 μM, final concentration). A blank (fluorescein + AAPH) with phosphate buffer instead of test compounds and trolox calibration were performed for the assays of antioxidants. The samples were measured at different concentration (1–10 μM). All the reaction mixtures were prepared fourfold, and at least three independent assays were performed for each sample. Fluorescence in time course was normalized on basis of the blank (without antioxidants). The ORAC-FL values were calculated as the reported method. Final ORAC-FL values were expressed in μM of trolox equivalents. Ferulic acid was used as the positive reference compound, showing an ORAC-FL value of 1.6 trolox equivalents.

PDE10A = system: PDE10A; design: method as in Siuciak et al., 2006a; details: ref Siuciak et al., 2006a; read-out: IC50 toward PDE10A; cited from earlier work

Q: What does the source list for COc1cc2ncnc(N3CCOCC3)c2cc1OCCc1c[nH]c2ccccc12 [Compound 8a, 4-(6-(2-(1H-indol-3-yl)ethoxy)-7-methoxyquinazolin-4-yl) morpholine]?
A: inhibition at 1 µM [1]: 57%; ORAC (oxygen radical absorbance capacity) [2]: 1.0 trolox equivalents and 1.0 ± 0.1 trolox equivalents

Q: For COc1cc(/C=C/C(=O)O)ccc1O [Ferulic acid, reference compound], which “ORAC (oxygen radical absorbance capacity)” value (from here on “ORAC”) [2] is on record?
A: 1.6 trolox equivalents and 1.6 ± 0.1 trolox equivalents

Q: For COc1cc2ncnc(NC(C)Cc3c[nH]c4ccccc34)c2cc1OC (stereo not drawn) [Compound 11b, N-(1-(1H-indol-3-yl)propan-2-yl)-6,7-dimethoxyquinazolin-4-amine], which inhibition at 1 µM [1] is on record?
A: 66%

Q: And the “ORAC” value [2]?
A: 1.5 ± 0.1 trolox equivalents

Q: Which inhibition at 1 µM [1] does the source give for COc1cc2ncnc(NCCc3c[nH]c4cc(F)ccc34)c2cc1OC [Compound 11f, N-(2-(6-fluoro-1H-indol-3-yl)ethyl)-6,7-dimethoxyquinazolin-4-amine] here?
A: 78%

Q: What about the IC50 [1] of the same compound?
A: < 1000 nM and 330 nM

Q: What about the “ORAC” value [2] of the same compound?
A: 1.0 trolox equivalents and 1.0 ± 0.1 trolox equivalents

Q: Which inhibition at 1 µM [1] does the source give for COc1ccc2[nH]cc(CC(C)Nc3ncnc4cc(OC)c(OC)cc34)c2c1 (stereo not drawn) [Compound 11d, 6,7-dimethoxy-N-(1-(5-methoxy-1H-indol-3-yl)propan-2-yl)quinazolin-4-amine] here?
A: 56%

Q: And the “ORAC” value [2]?
A: 1.3 trolox equivalents and 1.3 ± 0.1 trolox equivalents

Q: Which inhibition at 1 µM [1] does the source give for COc1ccc2[nH]cc(CCNc3ncnc4cc(OC)c(OC)cc34)c2c1 [Compound 11c, 6,7-dimethoxy-N-(2-(5-methoxy-1H-indol-3-yl)ethyl)quinazolin-4-amine] here?
A: 49%

Q: What about the “ORAC” value [2] of the same compound?
A: 2.2 trolox equivalents and 2.2 ± 0.03 trolox equivalents

Q: Which inhibition at 1 µM [1] does the source give for COc1cc2ncnc(N3CCOCC3)c2cc1OC(=O)C=Cc1ccc(O)cc1 [Compound 8b, 7-methoxy-4-morpholinoquinazolin-6-yl 3-(4-hydroxyphenyl)acrylate] here?
A: 26%

Q: What about the “ORAC” value [2] of the same compound?
A: 3.3 trolox equivalents and 3.3 ± 0.1 trolox equivalents

Q: Which inhibition at 1 µM [1] does the source give for COc1cc2ncnc(NCCc3c[nH]c4ccc(C)cc34)c2cc1OC [Compound 11g, 6,7-dimethoxy-N-(2-(5-methyl-1H-indol-3-Yl)ethyl)quinazolin-4-amine] here?
A: 64%

Q: What about the “ORAC” value [2] of the same compound?
A: 1.0 ± 0.2 trolox equivalents

Q: Which inhibition at 1 µM [1] does the source give for COc1cc2ncnc(NC(C)CCc3c[nH]c4ccccc34)c2cc1OC (stereo not drawn) [Compound 12] here?
A: 84%

Q: And the IC50 [1]?
A: < 1000 nM and 240 nM

Q: And the “ORAC” value [2]?
A: 1.3 trolox equivalents and 1.3 ± 0.2 trolox equivalents

Q: Which results are given for COc1cc2ncnc(NCCc3c[nH]c4ccc(Br)cc34)c2cc1OC [Compound 11h, N-(2-(5-bromo-1H-indol-3-yl)ethyl)-6,7-dimethoxyquinazolin-4-amine]?
A: inhibition at 1 µM [1]: 66%; ORAC (oxygen radical absorbance capacity) [2]: 1.9 ± 0.1 trolox equivalents

Q: With COc1cc2ncnc(NCCc3c[nH]c4ccc(O)cc34)c2cc1OC [Compound 11e, 3-(2-((6,7-dimethoxyquinazolin-4-yl)amino)ethyl)-1H-indol-5-ol] as the compound, how does the inhibition at 1 µM [1] read?
A: 76%

Q: What about the IC50 [1] of the same compound?
A: < 1000 nM and 640 nM

Q: And the “ORAC” value [2]?
A: 2.3 trolox equivalents and 2.3 ± 0.2 trolox equivalents

Q: What does the source list for COc1cc2ncnc(NCCc3nc4ccccc4[nH]3)c2cc1OC [Compound 13, N-(2-(1H-benzo[d]imidazol-2-yl)ethyl)-6,7-dimethoxyquinazolin-4-amine]?
A: inhibition at 1 µM [1]: 80%; IC50 [1]: < 1000 nM and 680 nM; ORAC (oxygen radical absorbance capacity) [2]: 0.15 ± 0.02 trolox equivalents

Q: Which results are given for COc1cc2ncnc(N3CCOCC3)c2cc1OC(=O)CCCCC1CCSS1 (stereo not drawn) [Compound 8c, 7-methoxy-4-morpholinoquinazolin-6-yl 5-(1,2-dithiolan-3-yl)pentanoate]?
A: inhibition at 1 µM [1]: 24%; ORAC (oxygen radical absorbance capacity) [2]: 0.3 ± 0.01 trolox equivalents

Q: For COc1ccc(Cc2nccc3cc(OC)c(OC)cc23)cc1OC [Papaverine], which IC50 (PDE10A) is on record?
A: 10 to 300 nM

Q: For COc1cc2ncnc(NCCc3c[nH]c4ccccc34)c2cc1OC [Compound 11a, N-(2-(1H-indol-3-yl)ethyl)-6,7-dimethoxyquinazolin-4-amine], which inhibition at 1 µM [1] is on record?
A: 72%

Q: What about the IC50 [1] of the same compound?
A: < 1000 nM and 760 nM

Q: What about the “ORAC” value [2] of the same compound?
A: 1.3 ± 0.1 trolox equivalents
